Measured values reported in US12251373B2, “Compounds and methods of treating retinal degeneration” (CASE WESTERN RESERVE UNIVERSITY, priority 2017, dated 2025).

What was measured:
bovine opsin = molecular target: T1, bovine opsin (Bos taurus, UniProt P02699); experiment: Isorhodopsin pigment regeneration of opsin in ROS disc membranes (absorption spectroscopy); assay type: biochemical; conditions: for competition with 9-cis-retinal for isorhodopsin regeneration (absorption at 495 nm): with 5 μM 9-cis-retinal, simultaneously or sequentially
T1 construct: ROS membranes were isolated from bovine retinas under dim red light; from tissue; host or cells: bovine retina rod outer segment (ROS) membranes, bleached with hydroxylamine
Description: ROS membranes were isolated from bovine retinas under dim red light. To remove membrane associated proteins, ROS membranes were washed with a hypotonic buffer composed of 5 mM bis-tris propane (BTP) and 1 mM EDTA, pH 7.5, followed by gentle homogenization with subsequent centrifugation at 25,000 g for 30 min. This procedure was repeated four times. The final membrane pellet was suspended in 10 mM sodium phosphate buffer, pH 7.0, and 50 mM hydroxylamine to a 3 mg mL^−1 concentration of rhodopsin, placed on ice and illuminated with a 150 Watt bulb for 30 min. Membranes were pelleted by centrifugation at 16,000 g for 5 min and then washed four times with 10 mM sodium phosphate buffer, pH 7.0, and 2% bovine serum albumin followed by 4 washes with 10 mM sodium phosphate buffer, pH 7.0, and 2 washes with 20 mM BTP, pH 7.5, and 100 mM NaCl. The concentration of opsin was measured with a UV-visible spectrophotometer and quantified using the absorption coefficient ε280 nm=81,200 M^−1 cm^−1.
ROS membranes containing opsin were suspended in buffer composed of 20 mM BTP, pH 7.5, and 100 mM NaCl at a final concentration of 2.5 μM. […] Membranes then were solubilized with 20 mM DDM for 10 min at RT and UV-visible spectra of these samples were measured. To follow the kinetics of isorhodopsin regeneration, opsin membranes were treated with 0, 20 or 60 μM YC-001 for 15 min at RT. […] UV-visible spectra of the samples were measured every 2 min until 2 h of reaction time at RT. Each condition was repeated three times. The time course of isorhodopsin regeneration was fitted by a second order exponential decay and apparent half-lives were obtained at the time when reaction reached half of the end-point product.
Alternatively, opsin incubated with the above ligands was purified by 1D4-immunoaffinity chromatography. […] After washing, opsin samples were eluted by addition of 1D4 peptide ([…]) (SEQ ID NO: 1) to the above buffer and their spectra were measured with a UV-visible spectrophotometer.

rod opsin = molecular target: T2, rod opsin (Mus musculus, UniProt P15409); experiment: cAMP quantification assay in NIH3T3-(WT-opsin/GFP) cells; assay type: cell-based
T2 construct: expressed in transfected cells
Description: Three NIH3T3 stable cell lines, NIH3T3-(WT-opsin/GFP), NIH3T3-(P23H-opsin/GFP), and NIH3T3-(GFP) were previously generated which stably express mouse WT opsin and GFP; P23H opsin and GFP; and only GFP, respectively. GFP is expressed separately from opsin in these cell lines. NIH3T3 cells were from ATCC. DNA constructs for generating these stable cell lines were confirmed by Sanger sequencing. Expression of GFP was confirmed by green fluorescence imaging, and expression of P23H and WT opsin were confirmed by immunoblots.
NIH3T3-(Opsin/GFP) and NIH3T3-(GFP) were plated in two 96-well plates at a density of 50,000 cells per well in 100 μl of DMEM medium containing 10% FBS and antibiotics. After 24 h, cells were washed with Krebs Ringer bicarbonate buffer containing glucose (KRBG), and incubated with KRBG buffer containing 100 μM cAMP specific phosphodiesterase inhibitor, Ro 20-1724 (Tocris, UK) at RT for 10 min. […] While one plate then was wrapped with aluminum foil, the second plate was exposed to regular room light. Both plates were kept in a cell culture incubator for 15 min at 37° C. in 5% CO2. Levels of accumulated cAMP were detected with the Catchpoint cAMP fluorescent assay kit (Molecular Devices, Sunnyvale, CA USA) and the fluorescence with excitation/emission at 530/590 nm was read with a Flexstation3 plate reader (Molecular Devices) as described in the manufacturer's protocol.

bovine rod opsin = molecular target: T3, bovine rod opsin (Bos taurus, UniProt P02699); experiment: Gt activation assay; assay type: biochemical
T3 construct: Constitutive activity of bovine opsin in disc membranes; from tissue; host or cells: bovine ROS membranes (opsin membranes and Gt both from bovine ROS)
Description: Gt was extracted and purified from frozen bovine ROS membranes as described in Preparation of Opsin Membranes. The intrinsic increase in the fluorescence from Gtα was measured with a L55 luminescence spectrophotometer (PerkinElmer Life Sciences) using an excitation and emission wavelengths of 300 and 345 nm, respectively. […] DMSO-treated opsin membranes were used to obtain a baseline for the basal activity of opsin. The molar ratio of opsin to Gt was 1:10, with opsin at a concentration of 100 nM and Gt at 1000 nM. […] This step was followed by the addition of 300 μM GTPγS (Sigma-Aldrich) to determine the GTPγS-induced complex dissociation and corresponding fluorescence changes. Gt activation rates were determined and plotted for the first 100 s of the Gt activation assay.

C57BL/6 mice = experiment: Scotopic ERG recovery after bleaching; assay type: in vivo, mouse; conditions: 200 mg kg−1 i.p., compared to DMSO
Description: C57BL/6 mice at 2 months of age were placed in the dark overnight. Mice then were divided into a YC-001-treated group, a DMSO-treated group, and an unbleached group. Each group contained 3 mice (2 females and 1 male). Mice were given a single dose of YC-001 at 200 mg kg^−1 by i.p. injection. The DMSO group was treated with an equivalent volume of DMSO compared to the YC-001-treated group. One h after YC-001 or DMSO administration, mouse eyes were treated with 1% tropicamide eye drops for pupil dilation, exposed to 2,000 lux of illumination for 5 min and returned to the dark. Mice were anesthetized after a bleach for scotopic ERG recordings. Briefly, every 5 min a single-flash scotopic ERG at 1.6 cd·s·m^−2 was recorded until 1 h after a bleach. A-wave amplitudes of each ERG recording were measured, averaged from three animals, and plotted as a function of time and fitted to a linear function using Origin software version 8.1.

T2 sequence (P15409 whole entry): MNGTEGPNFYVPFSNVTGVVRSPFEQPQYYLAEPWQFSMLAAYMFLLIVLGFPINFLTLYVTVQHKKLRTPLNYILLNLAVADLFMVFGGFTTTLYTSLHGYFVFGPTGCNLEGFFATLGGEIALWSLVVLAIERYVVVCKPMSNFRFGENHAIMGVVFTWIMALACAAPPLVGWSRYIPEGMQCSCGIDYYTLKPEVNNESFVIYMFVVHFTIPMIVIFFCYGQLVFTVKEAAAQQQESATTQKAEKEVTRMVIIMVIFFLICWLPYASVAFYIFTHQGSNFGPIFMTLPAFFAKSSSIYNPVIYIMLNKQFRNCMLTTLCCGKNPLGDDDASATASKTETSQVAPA
T1 sequence (P02699 whole entry): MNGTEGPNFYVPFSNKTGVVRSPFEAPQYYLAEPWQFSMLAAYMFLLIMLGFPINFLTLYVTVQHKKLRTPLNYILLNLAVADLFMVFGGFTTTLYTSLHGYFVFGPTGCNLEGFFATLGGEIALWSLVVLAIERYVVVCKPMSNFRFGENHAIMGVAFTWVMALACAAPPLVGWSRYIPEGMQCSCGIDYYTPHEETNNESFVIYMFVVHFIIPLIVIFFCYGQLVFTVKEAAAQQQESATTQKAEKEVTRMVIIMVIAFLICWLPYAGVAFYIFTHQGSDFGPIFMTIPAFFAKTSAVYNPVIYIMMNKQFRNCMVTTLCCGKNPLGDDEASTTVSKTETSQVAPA
T3 sequence (P02699 whole entry): as above

cAMP level upon light exposure (rod opsin; NIH3T3-(WT-opsin/GFP) cells, light) | fold increase in EC50 of 9-cis-retinal dose-response curve (rod opsin; with 40 μM YC-001 co-treatment vs 9-cis-retinal alone) [fold] | ln(kinitial), rate of Gt activation of regenerated isorhodopsin upon illumination (bovine rod opsin; 40 μM 9-cis-retinal alone) | Structure (SMILES) | competition with 9-cis-retinal for isorhodopsin regeneration (absorption at 495 nm) (bovine opsin) | total amount of regenerated isorhodopsin pigment at the end of the reaction (bovine opsin; FIG. 4d) | kinetics of isorhodopsin pigment regeneration (bovine opsin; YC-001 then 9-cis-retinal, FIG. 4d) | reversibility of interaction with opsin (bovine opsin; after opsin/isorhodopsin purification) | cAMP levels, co-treated with 1 μM 9-cis-retinal under light (rod opsin; FIG. 5c) | EC50 (rod opsin; either in the dark or light, read-out: EC50 of dose-dependent increase in cAMP levels) [µM] | ln(kinitial), initial rate of Gt activation for opsin (bovine rod opsin; 40 μM compound, basal opsin activity) | ln(kinitial), rate of Gt activation of regenerated isorhodopsin upon illumination (bovine rod opsin; co-treated with 40 μM 9-cis-retinal and 40 μM YC-001) | scotopic ERG a-wave recovery after bleach (C57BL/6 mice)
– | – | – | O=C(CCCCCN1C(=O)c2cccc3cccc(c23)C1=O)NO [Scriptaid, reference compound] | does not compete with 9-cis-retinal | – | – | – | – | – | – | – | –
significantly reduced cAMP level | 3 | −4.6 | CC1=C(/C=C/C(C)=C\C=C\C(C)=C\C=O)C(C)(C)CCC1 [9-cis-retinal, reference compound] | – | – | – | – | – | – | – | – | –
– | – | – | O=C1OCC(c2ccc(Cl)s2)=C1c1cccs1 [YC-001] | less isorhodopsin was generated | didn't affect the total amount | slowed down the kinetics of pigment regeneration | reversible | dose-dependent elevation in cAMP levels | 8.22 | −6.1 | −4.9 | did not inhibit rhodopsin regeneration
